Laboratory results: patent US11492341B2, “ACLY inhibitors and uses thereof” (Nimbus Artemis, Inc., priority 2018, dated 2022)

Key:
ACC2 = ACC2 isolated from rat, mouse, monkey and human; cited from earlier work
ACC1 = ACC1 isolated from rat, mouse, monkey and human; cited from earlier work
ACL = ACL (Homo sapiens (Human), UniProt P53396); assay: ADP-Glo Assay; assay type: biochemical; conditions: 3 nM ACL, 15 μM ATP, 3 μM CoA, 300 μM Citrate
How it was run: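 Human ACL (3 nM) preincubated with compound 15 min at 25 °C, then reacted 60 min at 25 °C with 15 μM ATP, 3 μM CoA, 300 μM citrate, 0.01% Brij35, 4 mM DTT, 1% DMSO. ADP measured by ADP-Glo luminescence. Compounds tested from 30 or 100 μM top concentration, 3-fold dilutions, 11 points, duplicates.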

HepG2 cells [1] = assay: ACLY HepG2 14C-pyruvate incorporation assay with serum (IC50 Cholesterol); assay type: cell-based; conditions: Homo sapiens, Table 7, with serum, IC50 Cholesterol per table title and b713 (column head prints Fatty Acid), read-out: ACLY HepG2 ^14C- Pyruvate Assay with serum IC50 Fatty Acid 96 well (IC50)
Procedure: (§1) Example 30. ACLY HepG2 ^14C-Pyruvate Incorporation Assay with Serum
(§2) Compounds of the invention were also assayed in an ACLY HepG2 ^14C-pyruvate incorporation assay with serum (IC50 Cholesterol) and (IC50 Fatty Acid). The protocol of the assay (below) was followed:
(§3) HepG2 cells were seed at 5 k cells/well in 96-well cell culture plate in DMEM with 10% FBS (heat inactivated and 25 mM glucose). After 48 hours, the medium was replaced with fresh medium containing 10% FBS (heat inactivated and 25 mM glucose).
(§4) After 18 hours, the medium was replaced with 200 uL of DMEM (5.5 mM glucose without pyruvate) with or without FBS containing compounds (30, 10, 3.33, 1.11, 0.370, 0.123, 0.041 uM). DMSO concentration was 0.5%. The cells were incubated with compounds at 37° C. for 1 hour.
(§5) 2 μci of [14C]-pyruvate was added per well and the cell samples were incubated at 37° C., 5% CO2 for 5 hours.
(§6) The medium was removed and placed into a 96-well polypropylene deep well plate. 200 uL of 0.1N NaOH was added to each well at room temperature to dissolve cell monolayer. The remaining cell suspension was pooled with medium in a 96-well polypropylene deep well plate. 68 uL of 50% KOH was added to the plate containing medium and cell suspensions and capped.
(§7) Cells were incubated at 70° C. for 1 hour, and then cooled to room temperature.
6. Cholesterol Extraction
1 mL petroleum ether was added per well to extract non-saponifyable lipids (primarily sterols such as cholesterol), shaken vigorously, and centrifuged at 1000 rpm for 5 minutes. 500 μL of the petroleum ether layer was then transferred to a 96 well plate and 200 ul of H2O was added, shaken vigorously, and centrifuged at 1000 rpm for 5 minutes. The petroleum ether layer 500 ul was transferred to a new 96-well plate and evaporated to dryness with SpeedVac overnight. 200 μL of scintillation cocktail was then added and shaken and transferred to a 96 well optiplate and counted using the Microbeta Liquid Scintillation Counter.

HepG2 cells [2] = assay: ACLY HepG2 14C-pyruvate incorporation assay with serum (IC50 Fatty Acid); assay type: cell-based; conditions: Homo sapiens, Table 8, with serum, read-out: ACLY HepG2 ^14C- Pyruvate Assay with serum IC50 Fatty Acid 96 well (IC50)
Procedure: as §1, §2, §3, §4, §5, §6, §7
400 ul of the remaining 500 ul petroleum ether layer was removed and discard. 1 mL petroleum ether was added to the well, shaken vigorously, and centrifuged at 1000 rpm for 5 minutes. All 1100 ul of the petroleum ether layer removed and discarded. The aqueous phase was then acidified with 500 uL of concentrated HCl, checking pH of one or two extracts to make sure pH below 1 (critical, check by PH paper).
8. Fatty acids extraction
1 mL of petroleum ether was added per well to extract saponifyable lipids (extracted as fatty acids originating from saponified lipids such as triglycerides and phospholipids), shaken vigorously, centrifuged at 1000 rpm for 5 min, and 500 uL of the petroleum ether layer was then transferred to a new 96-well deep well plate. Repeat petroleum ether extraction step one more time and pool the petroleum ether extracts. Evaporate to dryness with SpeedVac overnight. 200 μL of scintillation cocktail was added and shaken and transferred to a 96 well optiplate and counted using the Microbeta Liquid Scintillation Counter.

ACL, sequence (P53396 whole entry, species assumed): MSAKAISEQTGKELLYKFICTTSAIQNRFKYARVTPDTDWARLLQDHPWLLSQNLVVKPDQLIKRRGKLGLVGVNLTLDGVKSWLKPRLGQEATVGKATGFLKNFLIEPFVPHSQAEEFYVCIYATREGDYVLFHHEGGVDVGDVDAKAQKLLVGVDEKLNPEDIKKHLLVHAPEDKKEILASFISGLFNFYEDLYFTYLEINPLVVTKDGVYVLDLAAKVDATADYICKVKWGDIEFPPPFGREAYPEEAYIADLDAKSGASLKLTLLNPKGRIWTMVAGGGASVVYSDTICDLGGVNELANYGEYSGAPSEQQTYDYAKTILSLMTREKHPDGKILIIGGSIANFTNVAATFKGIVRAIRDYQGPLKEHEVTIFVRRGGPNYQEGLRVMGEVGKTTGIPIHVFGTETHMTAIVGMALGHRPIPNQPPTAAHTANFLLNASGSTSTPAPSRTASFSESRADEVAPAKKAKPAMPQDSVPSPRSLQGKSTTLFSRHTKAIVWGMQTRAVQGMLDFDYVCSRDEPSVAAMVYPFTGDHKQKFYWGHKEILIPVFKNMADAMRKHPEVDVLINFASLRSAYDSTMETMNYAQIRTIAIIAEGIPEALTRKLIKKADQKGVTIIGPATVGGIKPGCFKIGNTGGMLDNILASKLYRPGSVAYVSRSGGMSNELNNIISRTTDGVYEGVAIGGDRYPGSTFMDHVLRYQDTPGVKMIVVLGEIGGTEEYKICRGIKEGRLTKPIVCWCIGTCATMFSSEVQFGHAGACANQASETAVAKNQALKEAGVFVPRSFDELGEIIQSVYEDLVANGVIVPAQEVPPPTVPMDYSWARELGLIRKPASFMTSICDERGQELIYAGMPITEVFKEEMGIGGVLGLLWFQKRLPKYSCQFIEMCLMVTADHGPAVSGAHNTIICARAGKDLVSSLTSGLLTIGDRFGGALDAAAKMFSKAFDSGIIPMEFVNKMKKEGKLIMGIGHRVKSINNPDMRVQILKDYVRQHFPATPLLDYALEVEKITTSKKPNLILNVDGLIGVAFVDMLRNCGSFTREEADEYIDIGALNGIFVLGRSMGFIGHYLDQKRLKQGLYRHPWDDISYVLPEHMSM

IC50 (ACL) | IC50 (HepG2 cells [1]) | IC50 (HepG2 cells [2]) | Compound | IC50 (ACC2) | IC50 (ACC1)
– | – | – | O=C(c1c2ccccc2cc2ccccc12)N1CCC(N2CCC[C@@H](C(=O)N3CCOCC3)C2)CC1 [CP-640186] | ~0.06 µM | ~0.06 µM
0.5 to 20 µM | ≤ 10 µM | ≤ 10 µM | O=S(=O)(c1cc(Br)cc(Cl)c1O)n1c(-c2ccc(OC(F)(F)F)cc2)cc2cc(Cl)ccc21 [I-25, 4-bromo-2-chloro-6-((5-chloro-2-(4-(trifluoromethoxy)phenyl)-1H-indol-1-yl)sulfonyl)phenol] | – | –
0.5 to 20 µM | ≤ 10 µM | ≤ 10 µM | O=S(=O)(c1cc(F)cc(F)c1O)n1c(-c2ccccc2)cc2cc(Cl)ccc21 [I-61] | – | –
